From patent publication US20150291593A1, “NOVEL HETEROARYL AND HETEROCYCLE COMPOUNDS, COMPOSITIONS AND METHODS” (HUTCHISON MEDIPHARMA LIMITED, priority 2012, published 2015)
pIC50: −log10 of the molar value.

Columns and labels:
[1] = molecular target: T1, p110γ (Homo sapiens, UniProt P48736); assay: Transcreener KINASE Assay, kinase inhibition of p110γ; assay type: biochemical; conditions: for pIC50: read-out: PI3Kγ IC50
T1 construct: purchased Invitrogen
Summary of the method: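 Recombinant human PI3K complexes (p110α/p85α, p110β/p85α, p110δ/p85α, p110γ) assayed by ADP detection via competitive far-red fluorescence polarization immunoassay.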

[2] = molecular target: T2, p110α/p85α (Homo sapiens, UniProt P42336); assay: Transcreener KINASE Assay, kinase inhibition of p110α/p85α; assay type: biochemical; conditions: @ 1 uM
T2 construct: purchased Invitrogen
T2 sequence (P42336 whole entry, species assumed): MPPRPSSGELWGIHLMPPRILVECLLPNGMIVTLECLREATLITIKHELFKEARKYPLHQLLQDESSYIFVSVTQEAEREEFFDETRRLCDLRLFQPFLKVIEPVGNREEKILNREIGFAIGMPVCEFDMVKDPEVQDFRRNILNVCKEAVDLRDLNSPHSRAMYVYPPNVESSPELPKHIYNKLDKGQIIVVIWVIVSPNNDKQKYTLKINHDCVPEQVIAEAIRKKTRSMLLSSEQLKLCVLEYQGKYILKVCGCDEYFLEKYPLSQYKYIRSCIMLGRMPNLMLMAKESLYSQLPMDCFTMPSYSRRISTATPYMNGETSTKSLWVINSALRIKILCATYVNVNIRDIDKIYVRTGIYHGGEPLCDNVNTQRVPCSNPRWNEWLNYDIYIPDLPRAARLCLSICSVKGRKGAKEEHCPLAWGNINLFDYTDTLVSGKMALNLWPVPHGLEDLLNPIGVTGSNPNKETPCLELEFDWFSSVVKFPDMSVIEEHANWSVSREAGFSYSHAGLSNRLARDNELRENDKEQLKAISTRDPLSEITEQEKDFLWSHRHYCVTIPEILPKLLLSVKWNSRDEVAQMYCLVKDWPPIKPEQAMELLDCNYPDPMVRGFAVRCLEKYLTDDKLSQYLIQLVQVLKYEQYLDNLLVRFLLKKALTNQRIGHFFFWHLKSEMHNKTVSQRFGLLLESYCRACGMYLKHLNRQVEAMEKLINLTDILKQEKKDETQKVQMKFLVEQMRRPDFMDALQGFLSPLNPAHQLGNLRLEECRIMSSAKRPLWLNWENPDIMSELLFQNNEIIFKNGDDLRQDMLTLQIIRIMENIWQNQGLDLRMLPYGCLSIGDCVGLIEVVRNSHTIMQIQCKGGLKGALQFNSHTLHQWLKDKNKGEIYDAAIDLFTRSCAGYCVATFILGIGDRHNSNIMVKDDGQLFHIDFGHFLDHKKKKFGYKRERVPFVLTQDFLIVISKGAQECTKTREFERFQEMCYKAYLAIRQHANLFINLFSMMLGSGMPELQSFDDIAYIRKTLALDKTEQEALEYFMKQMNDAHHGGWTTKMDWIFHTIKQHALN
T2 sequence (P27986 whole entry partner, species assumed): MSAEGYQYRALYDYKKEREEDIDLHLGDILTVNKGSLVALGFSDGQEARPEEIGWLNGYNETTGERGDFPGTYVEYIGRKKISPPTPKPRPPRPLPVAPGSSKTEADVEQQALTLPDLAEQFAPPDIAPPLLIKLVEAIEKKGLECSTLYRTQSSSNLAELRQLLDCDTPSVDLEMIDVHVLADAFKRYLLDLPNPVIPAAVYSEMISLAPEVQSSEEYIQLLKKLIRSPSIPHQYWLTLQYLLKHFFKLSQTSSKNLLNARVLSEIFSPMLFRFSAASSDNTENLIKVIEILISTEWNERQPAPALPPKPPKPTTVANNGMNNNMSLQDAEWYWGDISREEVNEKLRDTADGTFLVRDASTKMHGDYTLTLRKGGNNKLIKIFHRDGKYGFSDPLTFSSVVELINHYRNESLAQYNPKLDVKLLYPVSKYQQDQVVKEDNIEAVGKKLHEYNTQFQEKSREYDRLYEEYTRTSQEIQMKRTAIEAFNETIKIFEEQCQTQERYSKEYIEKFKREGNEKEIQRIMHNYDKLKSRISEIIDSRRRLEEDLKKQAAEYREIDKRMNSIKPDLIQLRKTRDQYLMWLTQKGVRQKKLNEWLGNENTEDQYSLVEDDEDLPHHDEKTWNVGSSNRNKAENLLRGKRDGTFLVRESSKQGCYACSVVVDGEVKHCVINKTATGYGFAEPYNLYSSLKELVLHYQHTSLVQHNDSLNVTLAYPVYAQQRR
Procedure: PI3K kinases including p110α/p85α, p110δ/p85α and p110γ are purchased from Invitrogen, and p110β/p85α is from Millipore.
Primary screening data and IC50 values are measured using Transcreener™ KINASE Assay (Bellbrook, Catalog #3003-10K). […] It is a universal, homogenous, high throughput screening (HTS) technology using a far-red, competitive fluorescence polarization immunoassay based on the detection of ADP to monitor the activity of enzymes that catalyze group transfer reactions. Briefly, the Transcreener KINASE Assay is designed as a simple two-part, endpoint assay.
In the first step, the 25 ul kinase reaction is performed by preparing a reaction mixture containing 5 ul test compound (2% DMSO final concentration), 10 ul kinase, buffer (50 mM HEPES, 100 mM NaCl, 1 mM EGTA, 0.03% CHAPS, 3 mM MgCl2, and freshly supplemented 1 mM DTT), and 10 ul 30 uM PIP2/10 uM ATP. The plate is sealed and incubated for 80 min at room temperature. Next, 25 ul ADP detection mix is added per well. The plate is sealed again and incubated for 60 min at room temperature, and then measure fluorescence polarization by Tecan Infinite F500 Reader.
Data is analyzed and IC50s are generated using the add-in software for Microsoft Excel, Xlfit™ (version 2.0). IH %=(ADP amount under 2% DMSO-ADP amount under test compound)/ADP amount under 2% DMSO.

[3] = molecular target: T3, PI3Kγ (Mus musculus, UniProt Q9JHG7); assay: Acumen Assay - Raw264.7 p-AKT Assay (C5a stimulated); assay type: cell-based; conditions: Raw264.7 macrophage cells, compound 30 min, 10 nM C5a 5 min, p-AKT (Ser473) readout; read-out: PI3Kγ cell-C5a Raw264.7 IC50
T3 construct: endogenous in cells; host or cells: Raw264.7 macrophage cells
Procedure: Acumen® eX3 (A Mμltilaser Microplate Cytometer For Enhanced High Content Screening): TTP LabTech
3×10^4 Raw264.7 macrophage cells were seeded into 96-well plates with DMEM+10% heat-inactivated FBS at […], 90 ul/well, overnight. After starvation for 3 hr at 37° C. under 5% CO2, Raw264.7 cells were treated with 10 ul/well various concentrations of compound or 0.5% DMSO for 30 min, and then stimulated with 10 ul/well 10 nM C5a for 5 min.
1.) Cells were fixed 110 μL of 4% pre-warmed Paraformaldehyde (2% final), incubate for 45 min at room temperature.
2.) Remove paraformaldehyde solution. Add 100 μL of ice-cold 0.1% Triton X-100 in PBS and leave at 4° C. for 30 min.
3.) Wash once in 100 μL PBS.
4.) Incubate with 100 μL blocking buffer (1% BSA, in PBS) for 2 hours at room temperature.
5.) Wash once for 5 min with 100 ul PBS.
6.) Incubate with 40 μL 1:200 dilution of phospho AKT (Ser473) rabbit antibody in antibody dilution buffer (0.1% BSA, in PBS) overnight at 4° C.
7.) Wash for 3 times for 10 min with 100 ul PBS.
8.) Incubate for 90 min at room temperature with 50 μL of goat anti-rabbit Alex488 antibody at a 1:1,000 dilution in antibody dilution buffer (0.1% BSA, in PBS). Cover plate in foil to keep out of light.
9.) Wash for 3 times for 10 min with 100 μL PBS.
10.) Add 50 μL of 1.5 μM Propidium Iodide solution to each well to determine cell number at a 1:1,000 dilution in PBS (stock: 1.5 mM).
11.) Incubate at room temperature for 30 min.
12.) Seal the plate with a black cover-seal (supplied with plate).
13.) Load the plate into the Acumen Explorer and scan with the appropriate instrument settings.

[4] = molecular target: T4, p110δ/p85α (Homo sapiens, UniProt O00329); assay: Transcreener KINASE Assay, kinase inhibition of p110δ/p85α; assay type: biochemical; conditions: for pIC50: read-out: PI3Kδ IC50
T4 construct: purchased Invitrogen
T4 sequence (O00329 whole entry, species assumed): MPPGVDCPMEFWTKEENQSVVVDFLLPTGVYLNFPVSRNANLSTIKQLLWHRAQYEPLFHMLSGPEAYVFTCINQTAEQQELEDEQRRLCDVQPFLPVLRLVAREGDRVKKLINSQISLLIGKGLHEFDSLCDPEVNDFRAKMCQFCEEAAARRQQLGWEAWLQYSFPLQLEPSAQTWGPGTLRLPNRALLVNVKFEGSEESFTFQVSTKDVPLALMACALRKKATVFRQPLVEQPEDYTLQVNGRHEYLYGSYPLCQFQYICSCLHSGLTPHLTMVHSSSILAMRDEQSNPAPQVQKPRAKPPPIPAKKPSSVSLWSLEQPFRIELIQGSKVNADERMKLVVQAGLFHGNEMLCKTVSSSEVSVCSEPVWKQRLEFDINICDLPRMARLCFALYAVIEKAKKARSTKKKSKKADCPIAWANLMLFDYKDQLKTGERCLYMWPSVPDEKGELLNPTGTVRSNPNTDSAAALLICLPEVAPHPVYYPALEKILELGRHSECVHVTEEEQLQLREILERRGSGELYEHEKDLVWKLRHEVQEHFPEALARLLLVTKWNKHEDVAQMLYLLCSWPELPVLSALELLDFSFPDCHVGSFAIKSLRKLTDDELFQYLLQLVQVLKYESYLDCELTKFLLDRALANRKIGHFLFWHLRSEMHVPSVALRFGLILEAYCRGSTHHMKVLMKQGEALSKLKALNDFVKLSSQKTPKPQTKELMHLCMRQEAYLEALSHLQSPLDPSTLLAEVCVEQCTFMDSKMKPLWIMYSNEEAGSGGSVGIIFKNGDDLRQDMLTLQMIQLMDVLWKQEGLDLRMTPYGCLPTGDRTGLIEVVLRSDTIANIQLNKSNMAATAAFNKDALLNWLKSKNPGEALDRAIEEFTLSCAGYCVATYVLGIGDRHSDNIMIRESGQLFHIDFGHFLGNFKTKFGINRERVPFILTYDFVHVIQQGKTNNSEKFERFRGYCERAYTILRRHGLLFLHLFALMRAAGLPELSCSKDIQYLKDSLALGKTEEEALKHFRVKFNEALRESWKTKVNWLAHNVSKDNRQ
T4 sequence (P27986 whole entry partner, species assumed): as the sequence (P27986 whole entry partner, species assumed) above
Summary of the method: (§1)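 Steps: compound (2% DMSO final) plus enzyme in HEPES/NaCl/EGTA/CHAPS/3 mM MgCl2/1 mM DTT buffer; start with PIP2/ATP addition (30 uM/10 uM solution); 80 min RT; add ADP detection mix, 60 min RT; read fluorescence polarization.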

[5] = molecular target: T5, p110β/p85α (Homo sapiens, UniProt P42338); assay: Transcreener KINASE Assay, kinase inhibition of p110β/p85α; assay type: biochemical; conditions: @ 1 uM
T5 construct: purchased Millipore
T5 sequence (P42338 whole entry, species assumed): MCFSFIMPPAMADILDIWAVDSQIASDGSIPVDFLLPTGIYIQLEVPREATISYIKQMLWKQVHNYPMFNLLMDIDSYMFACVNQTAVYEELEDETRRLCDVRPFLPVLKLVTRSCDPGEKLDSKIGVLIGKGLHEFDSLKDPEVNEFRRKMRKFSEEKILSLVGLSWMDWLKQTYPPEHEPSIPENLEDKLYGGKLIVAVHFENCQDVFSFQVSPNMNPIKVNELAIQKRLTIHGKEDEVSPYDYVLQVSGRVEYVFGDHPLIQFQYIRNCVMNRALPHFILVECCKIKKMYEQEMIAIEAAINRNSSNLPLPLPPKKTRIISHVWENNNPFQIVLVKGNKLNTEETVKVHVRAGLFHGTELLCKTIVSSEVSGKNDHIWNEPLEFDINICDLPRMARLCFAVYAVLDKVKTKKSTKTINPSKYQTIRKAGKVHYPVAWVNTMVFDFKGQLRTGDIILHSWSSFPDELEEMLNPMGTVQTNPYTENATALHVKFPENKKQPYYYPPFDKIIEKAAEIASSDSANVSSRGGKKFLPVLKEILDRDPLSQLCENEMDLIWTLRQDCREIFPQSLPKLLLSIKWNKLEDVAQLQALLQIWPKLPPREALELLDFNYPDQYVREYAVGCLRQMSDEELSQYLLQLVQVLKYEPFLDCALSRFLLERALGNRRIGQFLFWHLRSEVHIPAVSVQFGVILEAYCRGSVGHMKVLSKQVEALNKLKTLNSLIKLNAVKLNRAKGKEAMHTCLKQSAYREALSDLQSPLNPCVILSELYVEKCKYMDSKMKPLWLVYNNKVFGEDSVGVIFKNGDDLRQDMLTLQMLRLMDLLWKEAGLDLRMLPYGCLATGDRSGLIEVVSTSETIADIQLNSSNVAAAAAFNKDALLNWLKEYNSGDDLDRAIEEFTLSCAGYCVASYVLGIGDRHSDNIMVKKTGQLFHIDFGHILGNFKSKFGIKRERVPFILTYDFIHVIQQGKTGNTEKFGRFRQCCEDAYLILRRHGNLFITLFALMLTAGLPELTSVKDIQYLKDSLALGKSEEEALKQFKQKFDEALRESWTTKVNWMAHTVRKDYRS
T5 sequence (P27986 whole entry partner, species assumed): as the sequence (P27986 whole entry partner, species assumed) above
Summary of the method: as §1

T1 sequence (P48736 whole entry, species assumed): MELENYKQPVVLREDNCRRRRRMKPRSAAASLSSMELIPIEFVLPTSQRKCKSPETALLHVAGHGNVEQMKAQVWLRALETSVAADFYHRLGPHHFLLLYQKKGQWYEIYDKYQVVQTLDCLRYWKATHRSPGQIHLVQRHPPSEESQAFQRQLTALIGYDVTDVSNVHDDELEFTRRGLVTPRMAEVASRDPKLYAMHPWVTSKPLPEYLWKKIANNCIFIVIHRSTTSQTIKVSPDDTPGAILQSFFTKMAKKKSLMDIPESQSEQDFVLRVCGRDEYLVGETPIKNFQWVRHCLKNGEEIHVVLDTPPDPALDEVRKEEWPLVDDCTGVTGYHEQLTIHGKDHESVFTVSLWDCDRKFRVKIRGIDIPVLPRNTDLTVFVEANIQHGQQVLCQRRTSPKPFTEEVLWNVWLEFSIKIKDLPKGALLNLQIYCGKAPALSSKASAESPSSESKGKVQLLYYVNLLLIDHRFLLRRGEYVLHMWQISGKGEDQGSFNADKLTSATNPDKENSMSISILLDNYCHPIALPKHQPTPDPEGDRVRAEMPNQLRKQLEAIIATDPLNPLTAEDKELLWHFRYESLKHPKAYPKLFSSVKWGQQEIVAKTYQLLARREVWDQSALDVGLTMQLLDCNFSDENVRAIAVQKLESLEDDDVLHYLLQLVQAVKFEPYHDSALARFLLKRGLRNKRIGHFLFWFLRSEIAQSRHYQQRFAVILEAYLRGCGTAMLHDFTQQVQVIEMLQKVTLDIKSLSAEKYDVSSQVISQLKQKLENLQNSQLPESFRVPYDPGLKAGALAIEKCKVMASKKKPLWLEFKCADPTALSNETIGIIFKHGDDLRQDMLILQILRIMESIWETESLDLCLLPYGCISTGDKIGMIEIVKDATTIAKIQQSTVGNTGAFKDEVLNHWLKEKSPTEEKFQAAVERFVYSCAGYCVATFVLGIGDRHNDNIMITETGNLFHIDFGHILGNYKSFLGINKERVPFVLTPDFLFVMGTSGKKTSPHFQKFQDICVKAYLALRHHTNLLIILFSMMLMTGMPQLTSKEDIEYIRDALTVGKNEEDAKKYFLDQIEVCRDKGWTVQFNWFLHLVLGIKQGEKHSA

PI3Kγ IH % @ 1 uM [1] [%]	PI3Kα IH % @ 1 uM [2] [%]	pIC50 [3]	PI3Kδ IH % @ 1 uM [4] [%]	pIC50 [4]	PI3Kβ IH % @ 1 uM [5] [%]	pIC50 [1]	SMILES
92.4	2.6	5.40	94.1	8.00	17.4	–	O=c1c2cccn2nc([C@@H]2CCCN2c2ncnc3[nH]cnc23)n1-c1ccccc1 [Compound 4]
>100	36.3	–	>100	–	53.5	7.66	NC(=O)c1c[nH]c2ncnc(N3CCC[C@H]3c3nn4cccc4c(=O)n3-c3ccccc3)c12 [Compound 94, (S)-4-(2-(4-oxo-3-phenyl-3,4-dihydropyrrolo[1,2-f][1,2,4]triazin-2-yl)pyrrolidin-1-yl)-7H-pyrrolo[2,3-d]pyrimidine-5-carboxamide]
87.9	16.2	–	88.4	–	15.2	7.00	C=Cc1c[nH]c2ncnc(N3CCC[C@H]3c3nn4cccc4c(=O)n3-c3ccccc3)c12 [Compound 98, (S)-3-phenyl-2-(1-(5-vinyl-7H-pyrrolo[2,3-d]pyrimidin-4-yl)pyrrolidin-2-yl)pyrrolo[1,2-f][1,2,4]triazin-4(3H)-one]
72.0	24.6	–	100	–	5.4	6.51	N#Cc1c[nH]c2ncnc(N3CCC[C@H]3c3nn4cccc4c(=O)n3-c3cccc(Cl)c3)c12 [Compound 15]
82.5	12.0	–	>100	7.82	17.8	6.44	O=c1c2cccn2nc([C@@H]2CCCN2c2ncnc3[nH]cc(Cl)c23)n1-c1ccccc1 [Compound 3]

SMILES	PI3Kγ IH % @ 1 uM [1] [%]	PI3Kα IH % @ 1 uM [2] [%]	pIC50 [3]	PI3Kδ IH % @ 1 uM [4] [%]	pIC50 [4]	PI3Kβ IH % @ 1 uM [5] [%]	pIC50 [1]
N#Cc1c[nH]c2ncnc(N3CCC[C@H]3c3nn4cccc4c(=O)n3-c3ccccc3)c12 [Compound 1, (S)-4-(2-(4-oxo-3-phenyl-3,4-dihydropyrrolo[1,2-f][1,2,4]triazin-2-yl)pyrrolidin-1-yl)-7H-pyrrolo[2,3-d]pyrimidine-5-carbonitrile]	91.9	50.8	–	97.8	8.70	47.7	–
